Measured values taken from ChEMBL document CHEMBL3430912, “GSK Tres Cantos Anti-Kinetoplastid Screening (TCAKS) Data”.

What was measured:
[1] = molecular target: Sterol 14-alpha demethylase (Trypanosoma cruzi (strain CL Brener), UniProt Q7Z1V1); test: GSK_TCAKS: pIC50 CYP51 from Trypanosoma cruzi.; assay type: functional
[2] = system: Trypanosoma brucei brucei; test: GSK_TCAKS: pIC50 Trypanosoma brucei viability assay using fluorescence intensity. Assay plates (1536-well) were prepared by dispensing 25nL of compound solution per well using an Echo acoustic dispenser (Labcyte).; assay type: functional, organism-based; settings: Lister 427, 2 h
Leishmania donovani [3] = test: GSK_TCAKS: pIC50 Leishmania donovani Imaging: Infected Macrophages. Assay plates (384-well) were prepared by adding 250nL of compound to each well. For single shot assay, the final compound concentration was 5 uM. […] Automated image analysis was performed with a script developed on Acapella High Content Imaging and Analysis Software (PerkinElmer). Output: Percent of infected macrophage cells were reported for each well.; assay type: functional, organism-based, Homo sapiens; settings: THP-1
Leishmania donovani [4] = test: GSK_TCAKS: pIC50 Leishmania donovani viability assay using fluorescence intensity. Assay plates (1536-well) were prepared by adding 30nL per well of compound. For single shot assay, the final compound concentration was 5uM. […] Briefly, eGFP LdBOB axenic amastigotes were harvested, fixed and counted in a CASY cell counter (Roche-Applied Science). A final concentration of 1.5 * 10^5 cells per well were prepared in amastigote media containing 500 U/mL penicillin/streptomycin (Invitrogen) and 6uL was dispensed to each experimental well using a Multidrop Combi dispenser (Thermo Scientific). 6uL of assay media was dispensed to control columns used as reference for 100% compound response. Following incubation for 72 h at 37C, 5% CO2, 2 uL of resazurin was added to each well at a final concentration of 0.5 mM in phosphate buffered saline (PBS) with IGEPAL (Sigma-Aldrich), 0.05% (v/v).; assay type: functional, organism-based
Leishmania donovani [5] = test: GSK_TCAKS: pIC50 Leishmania donovani Imaging: THP-1 Host Macrophages. Assay plates (384-well) were prepared by adding 250nL of compound to each well. For single shot assay, the final compound concentration was 5 uM. […] Automated image analysis was performed with a script developed on Acapella High Content Imaging and Analysis Software (PerkinElmer). Output: THP-1 cell count were reported for each well.; assay type: functional, organism-based, Homo sapiens
Trypanosoma cruzi [6] = test: (§1) GSK_TCAKS: pIC50 Trypanosoma cruzi Imaging: Infected Cells. […] Cells were then washed once with PBS before infection. T. cruzi trypomastigotes, collected at days 5 to 8 after infection from LLC-MK2 parasite infected cultures, were allowed to swim out for 4h at 37C from a centrifuged pellet (2,500 rpm/10 min/room temperature). Trypomastigotes were then collected and counted in a CASY Cell Counter. Trypomastigotes, in supplemented DMEM, were added to H9c2 cultures in a multiplicity of infection of 1 and incubated for 18 h. Cells were washed once with PBS before incubation of the infected H9c2 monolayer with trypsin (Life-Technologies) to detach cells from the flask. Cells were counted in a CASY Cell Counter using a 150 um capillary and their density set at 5 * 10^4 cells per mL in supplemented assay DMEM. Infected H9c2 were dispensed into 384-well poly-lysine coated assay plates at 50uL per well using a Multidrop Combi dispenser. After seeding them, the plates were incubated at 37C, 5% CO2 for 72h. Cultures were then fixed and stained by addition of 50 uL of a solution containing 8% formaldehyde and 4 uM DRAQ5 DNA dye (BioStatus, UK) per well. […] Five images were collected per well for reliable statistical analysis. Automated image analysis was performed with a script developed on Acapella High Content Imaging and Analysis Software (PerkinElmer). Output: percentage of infected cells per well as a second infection marker.; assay type: functional, organism-based, Rattus norvegicus; settings: H9c2, 4 h
Trypanosoma cruzi [7] = test: as §1, with “H2C9” for “Trypanosoma cruzi”, “H9c2 Host Cardiomyocytes.” for “Infected Cells.”, “Number” for “percentage”, “H9c2 Host Cardiomyocytes nuclei to determine drug-related cytotoxicity.” for “infected cells per well as a second infection marker.”; assay type: functional, organism-based, Rattus norvegicus; settings: H9c2, 4 h
[8] = system: Trypanosoma brucei brucei; test: GSK_TCAKS: pIC50 Trypanosoma brucei viability assay using luminiscence. Assay plates (1536-well) were prepared. T. brucei cultures were harvested and counted in a CASY cell counter. A parasite suspension was prepared at a final concentration of 5 * 10^4 cells/mL in complete HMI9 medium and 6uL was dispensed to all wells containing compounds using a Multidrop Combi dispenser. 6uL of HMI9 media with 0.4% DMSO were dispensed to control columns. Plates were incubated for 24 h at 37C, 5% CO2 then tempered for 10 min at room temperature. ATP content was quantified by adding 4 uL of CellTiter-Glo Reagent (Promega) according to the manufacturer's instructions. Luminescence was measured using a ViewLux.; assay type: functional, organism-based; settings: Lister 427, CASY
Trypanosoma cruzi [9] = test: GSK_TCAKS: pIC50 Trypanosoma cruzi Imaging: Amastigotes/Cell. […] Cells were then washed once with PBS before infection. T. cruzi trypomastigotes, collected at days 5 to 8 after infection from LLC-MK2 parasite infected cultures, were allowed to swim out for 4h at 37C from a centrifuged pellet (2,500 rpm/10 min/room temperature). Trypomastigotes were then collected and counted in a CASY Cell Counter. Trypomastigotes, in supplemented DMEM, were added to H9c2 cultures in a multiplicity of infection of 1 and incubated for 18 h. Cells were washed once with PBS before incubation of the infected H9c2 monolayer with trypsin (Life-Technologies) to detach cells from the flask. Cells were counted in a CASY Cell Counter using a 150 um capillary and their density set at 5 * 10^4 cells per mL in supplemented assay DMEM. Infected H9c2 were dispensed into 384-well poly-lysine coated assay plates at 50uL per well using a Multidrop Combi dispenser. After seeding them, the plates were incubated at 37C, 5% CO2 for 72h. Cultures were then fixed and stained by addition of 50 uL of a solution containing 8% formaldehyde and 4 uM DRAQ5 DNA dye (BioStatus, UK) per well. […] Five images were collected per well for reliable statistical analysis. Automated image analysis was performed with a script developed on Acapella High Content Imaging and Analysis Software (PerkinElmer). Output: number of amastigotes per cell as infection level measurement.; assay type: functional, organism-based, Rattus norvegicus; settings: H9c2, 4 h
Trypanosoma cruzi [10] = test: GSK_TCAKS: pIC50 Trypanosoma cruzi viability assay using beta-GAL activity. This assay was run at single shot at 5uM compound concentration per well. The biological reagents consisted of NIH-3T3 host cells and trypomastigotes parasitic cells; both cell types were set to a 3.3 * 10^5 cells/mL dilution in assay DMEM by means of a CASY cell counter device using a 60um capillary. 6 uL of the mixture were dispensed per well (about 1 * 10^3 host-cells and 1 * 10^3 parasites) with a Multidrop Combi dispenser. […] In all wells, the percentage of DMSO never exceeded 0.5%. Plates incubated for four days at 37C, 5% CO2. The substrate used for the assay fluorescence intensity (FLINT) readout was resorufin-beta-D-galactopiranoside (Sigma-Aldrich) at 5uM per well. It was diluted in PBS supplemented with the soft detergent Igepal (Fluka).; assay type: functional, organism-based, Mus musculus; settings: Tulahuen, NIH3T3
Leishmania donovani [11] = test: GSK_TCAKS: pIC50 Leishmania donovani Imaging: Amastigotes/Macrophages. Assay plates (384-well) were prepared by adding 250nL of compound to each well. For single shot assay, the final compound concentration was 5 uM. […] Automated image analysis was performed with a script developed on Acapella High Content Imaging and Analysis Software (PerkinElmer). Output: Average number of amastigotes per macrophage cell were reported for each well.; assay type: functional, organism-based, Homo sapiens; settings: THP-1
[12] = GSK_TCAKS: pIC50 HepG2 human cell line viability assay using luminiscence. […] Seeding density was checked to ensure that new mono-layers were not more than 50% confluent at the time of harvesting. Cell suspension was added to 500 mL of the same medium at a final density of 1.2 * 10^5 cells/mL. This cell suspension was dispensed (25 uL, 3000 cells per well) into 384-well clear-bottom plates using a Multidrop Combi dispenser. Prior to addition of the cell suspension, the screening compounds (250 nL) were pre-dispensed into the plates with an Echo liquid handler. Plates were incubated for 48 h at 37C, 5% CO2. After incubation, plates equilibrated at room temperature for 30 min before proceeding to develop the luminescent signal. The signal developer, CellTiter-Glo Reagent, was allowed to equilibrate at room temperature for 30 min and added to the plates (25uL per well) using a Multidrop Combi dispenser. Plates were left for 10 min at room temperature for stabilization and then read using a ViewLux.; assay type: toxicity, cell-based

Chain of Sterol 14-alpha demethylase (Q7Z1V1 whole entry): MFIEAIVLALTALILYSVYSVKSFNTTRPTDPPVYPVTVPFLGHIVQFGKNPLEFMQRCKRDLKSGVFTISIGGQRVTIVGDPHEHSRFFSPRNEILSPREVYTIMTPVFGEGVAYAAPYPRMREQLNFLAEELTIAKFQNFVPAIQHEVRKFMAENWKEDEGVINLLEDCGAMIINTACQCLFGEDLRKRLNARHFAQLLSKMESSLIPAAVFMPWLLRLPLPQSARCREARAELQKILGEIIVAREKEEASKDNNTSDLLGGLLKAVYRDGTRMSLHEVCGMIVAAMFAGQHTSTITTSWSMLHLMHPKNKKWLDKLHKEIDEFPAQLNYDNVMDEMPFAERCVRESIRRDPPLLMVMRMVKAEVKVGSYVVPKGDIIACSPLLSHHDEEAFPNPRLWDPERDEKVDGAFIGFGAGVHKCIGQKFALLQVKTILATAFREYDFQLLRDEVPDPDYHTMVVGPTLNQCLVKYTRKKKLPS

| SMILES | IC50 [1] [µM] | IC50 [2] [µM] | IC50 (Leishmania donovani [3]) [µM] | IC50 (Leishmania donovani [4]) [µM] | IC50 (Leishmania donovani [5]) [µM] | IC50 (Trypanosoma cruzi [6]) [µM] | IC50 (Trypanosoma cruzi [7]) [µM] | IC50 [8] [µM] | IC50 (Trypanosoma cruzi [9]) [µM] | IC50 (Trypanosoma cruzi [10]) [µM] | IC50 (Leishmania donovani [11]) [µM] | IC50 at 48 h [12] [µM] |
| --- | --- | --- | --- | --- | --- | --- | --- | --- | --- | --- | --- | --- |
| CC(c1ccccn1)N(C)Cc1nc2ccccc2n1C(C)C (configuration not stated) | 31.6 | 12.6 | 3.16 | 10 | 15.8 | 6.31 | > 50.1 | 10 | 2 | 1.58 | 2 | 25.1 |
| N#Cc1cnc(Nc2cccc(CCN3CCOCC3)c2)nc1Nc1ccccc1C(N)=O | 10 | 0.0631 | 1.58 | 2.51 | 0.794 | 3.16 | 0.0126 | 0.251 | 2 | 1.26 | 1 | 25.1 |
| COc1ccc(C2=NCC(CSc3nnc(-c4ccc5c(c4)OCO5)o3)S2)cc1 (configuration not stated) | 10 | 10 | 1 | 1 | > 50.1 | 0.501 | > 50.1 | > 39.8 | 0.316 | 2.51 | 0.398 | > 100 |
| O=C(COc1nn(-c2ccccc2)c2ncccc12)NCc1ccccc1 | 6.31 | > 39.8 | 0.316 | 0.398 | > 50.1 | > 50.1 | > 50.1 | > 39.8 | 31.6 | 12.6 | 0.0794 | > 100 |
| CCOc1ccc(CC(=O)N2c3ccccc3CC2C(=O)NC)cc1 (configuration not stated) | > 100 | 0.501 | > 50.1 | > 50.1 | > 50.1 | > 50.1 | > 50.1 | 0.501 | > 50.1 | > 50.1 | > 50.1 | > 100 |
| CCS(=O)(=O)Nc1ccc(C2=NN(C(=O)c3cccs3)C(c3ccccc3OC)C2)cc1 (configuration not stated) | 25.1 | 5.01 | 7.94 | 1.26 | > 50.1 | > 50.1 | > 50.1 | 15.8 | > 50.1 | 7.94 | 7.94 | > 100 |
| Cc1cc(N2CCc3ccccc3C2)nc(Nc2ccc(S(=O)(=O)N3CCOCC3)cc2)n1 | > 100 | 31.6 | 5.01 | 3.16 | 25.1 | > 50.1 | > 50.1 | > 39.8 | 25.1 | > 50.1 | 1.58 | > 100 |
| Cn1nc(C(=O)N2CCc3ccccc32)c2c1CCS(=O)(=O)C2 | > 100 | 3.98 | 3.98 | 3.98 | > 50.1 | 12.6 | > 50.1 | 6.31 | 7.94 | 7.94 | 1.58 | > 100 |
| CCCCN(C(=O)c1ccc(NC(=O)C(C)C)cc1)c1ccccc1 | 12.6 | 15.8 | 5.01 | 1 | > 50.1 | > 50.1 | > 50.1 | > 39.8 | 10 | 20 | 3.16 | > 100 |
| COc1ccc(-c2csc(NC(=O)c3ccc([N+](=O)[O-])s3)n2)cc1OC | > 100 | 0.126 | 1.26 | 1 | 31.6 | 0.1 | 6.31 | 0.631 | 0.0794 | 0.1 | 1.26 | 10 |
| COc1ccc2ncc(Cl)c(CCN3CC[C@H](NCc4cc5c(cn4)OCS5)[C@@H](O)C3)c2n1 | 7.94 | 0.316 | 1 | 2 | 6.31 | 0.158 | 10 | 0.631 | 0.1 | 0.126 | 0.501 | 25.1 |
